This is an account of results in patent US9884818B2, “Sulphamoylpyrrolamide derivatives and the use thereof as medicaments for the treatment of hepatitis B” (Janssen Sciences Ireland UC, priority 2013, dated 2018).

Data set [1] can be described thus: Cytotoxicity in HepG2 cells, Resazurin viability assay. The note with it: human, HepG2 cells, HepG2 4 days CC50 (μM), incubated for 4 days, Resazurin assay.
In data set [2] the test system is HBV. The experiment in a line: Anti-HBV activity, HepG2.2.15 stable transfected cell line, HBV DNA from secreted virions by realtime PCR. It counts as cell-based. The settings on record: Hepatitis B virus, HepG2.2.15, 144 h, HepG2.2.15 cells, 6 days of treatment, HBV DNA from secreted virions; read-out: HepG2 2.15 EC50.
For data set [3], the system named is HBV. Kind of data set: Anti-HBV activity, HepG2.117 inducibly HBV producing cell line (Tet-off), intracellular HBV DNA by realtime PCR. It is filed as cell-based. The settings on record: Hepatitis B virus, HepG2.117, 72 h, HepG2.117 cells, 3 days of treatment, intracellular HBV DNA; read-out: HepG2 117 EC50.

In turn, `Cn1cc(S(=O)(=O)NC(C)(C)C)c(Cl)c1C(=O)Nc1ccc(F)c(Cl)c1` [Compound 220, 4-(tert-Butylsulfamoyl)-3-chloro-N-(3-chloro-4-fluorophenyl)-1-methyl-1H-pyrrole-2-carboxamide] yielded a CC50 at 4 days in data set [1] above 25 µM. Besides, the EC50 in the data set with HBV [2] came out at 100 nM; in the data set on HBV [3], 40 nM.
In the same order, the values of `Cn1cc(S(=O)(=O)NC2(C(F)(F)F)CCC2)c(Cl)c1C(=O)Nc1ccc(F)c(C#N)c1` [Compound 221, 3-Chloro-N-(3-cyano-4-fluorophenyl)-1-methyl-4-{[1-(trifluoro-methyl)cyclobutyl]sulfamoyl}-1H-pyrrole-2-carboxamide] are above 25 µM, 7 nM and 6 nM.
In the same order, the values of `C[C@@H](NS(=O)(=O)c1cn(C)c(C(=O)Nc2ccc(F)c(Cl)c2)c1Cl)C(F)(F)F` [Compound 222, 3-Chloro-N-(3-chloro-4-fluorophenyl)-1-methyl-4-{[(1R)-2,2,2-trifluoro-1-methylethyl]sulfamoyl}-1H-pyrrole-2-carboxamide] are above 25 µM, 4 nM and 9 nM.
In the same order, the values of `Cn1cc(S(=O)(=O)NC(C)(C)C)c(Cl)c1C(=O)Nc1ccc(F)c(F)c1` [Compound 223, 4-(tert-Butylsulfamoyl)-3-chloro-N-(3,4-difluorophenyl)-1-methyl-1H-pyrrole-2-carboxamide] are above 25 µM, 120 nM and 90 nM.
In the case of `Cn1cc(S(=O)(=O)NC(C)(C)C)c(Cl)c1C(=O)Nc1ccc(F)c(Cl)c1F` [Compound 224, 4-(tert-Butylsulfamoyl)-3-chloro-N-(3-chloro-2,4-difluorophenyl)-1-methyl-1H-pyrrole-2-carboxamide], the CC50 at 4 days in data set [1] was above 25 µM. Besides, the EC50 turned out to be 220 nM with HBV [2] and 260 nM in the data set with HBV [3].
In turn, `C[C@H](NS(=O)(=O)c1cn(C)c(C(=O)Nc2ccc(F)c(C#N)c2)c1Cl)C(F)(F)F` [Compound 225, 3-Chloro-N-(3-cyano-4-fluorophenyl)-1-methyl-4-{[(1S)-2,2,2-trifluoro-1-methylethyl]sulfamoyl}-1H-pyrrole-2-carboxamide] displayed a CC50 at 4 days in data set [1] above 25 µM. Besides, the EC50 in the data set on HBV [2] and with HBV [3] was 70 nM in each case.
In data set [1], `Cn1cc(S(=O)(=O)NC(C)(C)C)c(Cl)c1C(=O)Nc1ccc(F)c(C#N)c1` [Compound 226, 4-(tert-Butylsulfamoyl)-3-chloro-N-(3-cyano-4-fluorophenyl)-1-methyl-1H-pyrrole-2-carboxamide] had a CC50 at 4 days above 25 µM. The results for the EC50 in the data set with HBV [2] and with HBV [3] were 190 nM and 210 nM, respectively.
In the same order, the values of `Cn1cc(S(=O)(=O)NC2(C(F)(F)F)CC2)cc1C(=O)Nc1ccc(F)c(C#N)c1` [Compound 227, N-(3-Cyano-4-fluorophenyl)-1-methyl-4-{[1-(trifluoromethyl)cyclopropyl]sulfamoyl}-1H-pyrrole-2-carboxamide] are above 25 µM, 20 nM and 40 nM.
`C[C@@H](NS(=O)(=O)c1cn(C)c(C(=O)Nc2ccc(F)c(F)c2)c1F)C(F)(F)F` [Compound 229, N-(3,4-Difluorophenyl)-3-fluoro-1-methyl-4-{[(1R)-2,2,2-trifluoro-1-methylethyl]sulfamoyl}-1H-pyrrole-2-carboxamide] returned a CC50 at 4 days in data set [1] above 25 µM. The EC50 with HBV [2] and in the data set on HBV [3] was 4 nM in each case.
Take `CC(C)NS(=O)(=O)c1cn(C)c(C(=O)Nc2ccc(F)c(Br)c2)c1F` [Compound 230, N-(3-Bromo-4-fluorophenyl)-3-fluoro-1-methyl-4-[(1-methylethyl)sulfamoyl]-1H-pyrrole-2-carboxamide]: the CC50 at 4 days in data set [1] is above 25 µM. Also, the EC50 in the data set with HBV [2] stood at 8 nM; in the data set with HBV [3], 30 nM.
For `CC(C)NS(=O)(=O)c1cn(C)c(C(=O)Nc2ccc(F)c(C#N)c2F)c1F` [Compound 231, N-(3-Cyano-2,4-difluorophenyl)-3-fluoro-1-methyl-4-[(1-methyl-ethyl)sulfamoyl]-1H-pyrrole-2-carboxamide], the CC50 at 4 days in data set [1] is above 25 µM. Besides, the EC50 in the data set on HBV [2] came out at 40 nM; in the data set with HBV [3] it was 30 nM.
Take `CC(C)NS(=O)(=O)c1cn(C)c(C(=O)Nc2ccc(F)c(F)c2)c1F` [Compound 232, N-(3,4-Difluorophenyl)-3-fluoro-1-methyl-4-[(1-methylethyl)sulfamoyl]-1H-pyrrole-2-carboxamide]: the CC50 at 4 days in data set [1] was above 25 µM. Moreover, the EC50 with HBV [2] and in the data set on HBV [3] was 20 nM throughout.
In turn, `CC(C)NS(=O)(=O)c1cn(C)c(C(=O)Nc2ccc(F)c(F)c2F)c1F` [Compound 233, 3-Fluoro-1-methyl-4-[(1-methylethyl)sulfamoyl]-N-(2,3,4-trifluorophenyl)-1H-pyrrole-2-carboxamide] gave a CC50 at 4 days in data set [1] above 25 µM. In addition, the EC50 in the data set on HBV [2] came out at 90 nM; with HBV [3], 160 nM.
Take `CC(C)NS(=O)(=O)c1cn(C)c(C(=O)Nc2ccc(F)c(Cl)c2F)c1F` [Compound 234, N-(3-Chloro-2,4-difluorophenyl)-3-fluoro-1-methyl-4-[(1-methyl-ethyl)sulfamoyl]-1H-pyrrole-2-carboxamide]: in data set [1], the CC50 at 4 days was above 25 µM. The EC50 with HBV [2] was found to be 20 nM; with HBV [3], 30 nM.
`CC(C)NS(=O)(=O)c1cn(C)c(C(=O)Nc2ccc(F)c(Cl)c2)c1F` [Compound 235, N-(3-Chloro-4-fluorophenyl)-3-fluoro-1-methyl-4-[(1-methylethyl)sulfamoyl]-1H-pyrrole-2-carboxamide] gave a CC50 at 4 days in data set [1] above 25 µM. In addition, the EC50 in the data set with HBV [2] and in the data set with HBV [3] was 10 nM each time.
For the molecule `Cn1cc(S(=O)(=O)NC(C)(C)C(F)(F)F)cc1C(=O)Nc1ccc(F)c(C#N)c1` [Compound 237, N-(3-Cyano-4-fluorophenyl)-1-methyl-4-[(2,2,2-trifluoro-1,1-di-methylethyl)sulfamoyl]-1H-pyrrole-2-carboxamide], the CC50 at 4 days in data set [1] is above 25 µM. Moreover, the EC50 with HBV [2] was determined as 80 nM; in the data set on HBV [3], 100 nM.
In the case of `CC(CC(F)(F)F)NS(=O)(=O)c1cc(C(=O)Nc2ccc(F)c(C#N)c2)n(C)c1` (stereo not drawn) [Compound 238, N-(3-Cyano-4-fluorophenyl)-1-methyl-4-[(3,3,3-trifluoro-1-methyl-propyl)sulfamoyl]-1H-pyrrole-2-carboxamide], the CC50 at 4 days in data set [1] is above 25 µM. For the same molecule, the figures for the EC50 in the data set on HBV [2] and in the data set on HBV [3] were 100 nM and 110 nM, respectively.
In data set [1], `CC[C@H](NS(=O)(=O)c1cc(C(=O)Nc2ccc(F)c(C#N)c2)n(C)c1)C(F)(F)F` [Compound 239, N-(3-Cyano-4-fluorophenyl)-1-methyl-4-{[(1S)-1-(trifluoromethyl)-propyl]sulfamoyl}-1H-pyrrole-2-carboxamide] gave a CC50 at 4 days above 25 µM. For the same molecule, the EC50 in the data set on HBV [2] turned out to be 20 nM; with HBV [3], 10 nM.
Molecule `CC[C@@H](NS(=O)(=O)c1cc(C(=O)Nc2ccc(F)c(C#N)c2)n(C)c1)C(F)(F)F` [Compound 240, N-(3-Cyano-4-fluorophenyl)-1-methyl-4-{[(1R)-1-(trifluoromethyl)-propyl]sulfamoyl}-1H-pyrrole-2-carboxamide] returned a CC50 at 4 days in data set [1] above 25 µM. In addition, the EC50 in the data set with HBV [2] was 20 nM; in the data set with HBV [3], 50 nM.
`Cn1cc(S(=O)(=O)NC2(C(F)(F)F)CCC2)cc1C(=O)Nc1ccc(F)c(C#N)c1` [Compound 241, N-(3-Cyano-4-fluorophenyl)-1-methyl-4-{[1-(trifluoromethyl)cyclo-butyl]sulfamoyl}-1H-pyrrole-2-carboxamide] had a cytotoxic concentration (CC50) at 4 days in data set [1] above 25 µM. Besides, the EC50 with HBV [2] and in the data set on HBV [3] was 10 nM each time.
`Cn1cc(S(=O)(=O)NC(CF)CF)cc1C(=O)Nc1ccc(F)c(C#N)c1` [Compound 242, N-(3-Cyano-4-fluorophenyl)-4-{[2-fluoro-1-(fluoromethyl)ethyl]sulfamoyl}-1-methyl-1H-pyrrole-2-carboxamide]: the CC50 at 4 days in data set [1] is above 25 µM. The EC50 in the data set on HBV [2] worked out at 200 nM; in the data set with HBV [3], 300 nM.
In the case of `Cc1c(S(=O)(=O)NC2(C)COC2)cn(C)c1C(=O)Nc1ccc(F)c(Cl)c1F` [Compound 243, N-(3-Chloro-2,4-difluorophenyl)-1,3-dimethyl-4-[(3-methyloxetan-3-yl)sulfamoyl]-1H-pyrrole-2-carboxamide], the CC50 at 4 days in data set [1] was above 25 µM. In addition, the EC50 in the data set on HBV [2] turned out to be 110 nM; in the data set with HBV [3] it was 100 nM.
Turning to `Cn1cc(S(=O)(=O)NC2(C)CC2)cc1C(=O)Nc1ccc(F)c(C#N)c1` [Compound 244, N-(3-cyano-4-fluoro-phenyl)-1-methyl-4-[(1-methylcyclopropyl)-sulfamoyl]pyrrole-2-carboxamide], in data set [1], the CC50 at 4 days was above 25 µM. In addition, the EC50 in the data set with HBV [2] came to 140 nM; in the data set on HBV [3], 530 nM.
`Cn1cc(S(=O)(=O)NC2(C)CC(F)(F)C2)cc1C(=O)Nc1ccc(F)c(C#N)c1` [Compound 245, N-(3-cyano-4-fluoro-phenyl)-4-[(3,3-difluoro-1-methyl-cyclobutyl)sulfamoyl]-1-methyl-1H-pyrrole-2-carboxamide] gave a CC50 at 4 days in data set [1] above 25 µM. In addition, the EC50 in the data set on HBV [2] and in the data set with HBV [3] was 40 nM in each case.
Turning to `CCC(C)(NS(=O)(=O)c1cc(C(=O)Nc2ccc(F)c(C#N)c2)n(C)c1)C(F)(F)F` (stereo not drawn) [Compound 246, N-(3-cyano-4-fluoro-phenyl)-1-methyl-4-{[1-methyl-1-(trifluoro-methyl)propyl]sulfamoyl}-1H-pyrrole-2-carboxamide], the CC50 at 4 days in data set [1] was above 25 µM. Further, the results for the EC50 with HBV [2] and in the data set with HBV [3] were 50 nM and 60 nM, respectively.
